From PMC5626944 (Frontiers in Pharmacology, 2017)

Legend:
Serotonin, 5HT5A (h) = experiment: NovaScreen competition binding; parameters: species or system human; details: 1 µM
male Wistar rats = experiment: Rat responding for food rewards; type: in vivo; details: 0.01, 0.025, 0.05, 0.08 mg/kg ip, 20 min before session
From the text: Operant chambers (Med Associates, East Fairfield, VT, United States) were used for food delivery and the intravenous self-administration (IVSA) of nicotine.
For IV catheter implantation, the rats were anesthetized using 1–3% isoflurane inhalation in oxygen and surgically prepared with catheters in the left jugular vein ([Kenny et al., 2008]). The catheter was passed subcutaneously to a polyethylene assembly mounted on the animals’ back. Prior to training, rats were food-restricted so that their body weight was approximately ∼85% that of free-feeding rats. They were then trained to press an active lever for 45 mg food pellets on a fixed ratio 5 time-out 20 s (FR5TO20) schedule of reinforcement. […] Pressing this lever was recorded but was not associated with scheduled consequence. Rats were permitted to respond for food rewards until a reliable response was achieved, defined as >90 pellets earned per 1 h session for three consecutive sessions. Rats were then permitted to respond for food (n = 8) or for nicotine infusions (n = 9) during 1 h daily sessions under the FR5TO20 schedule. […]
Twenty min after injection, rats were placed in the operant boxes and responding for food rewards or nicotine infusions was recorded. […]

With C1=C(/c2cncnc2)CCCNCC/1 [TC299423, (E)-5-(pyrimidin-5-yl)-1,2,3,4,7,8-hexahydroazocine] the Hit (Serotonin, 5HT5A (h)) was “FALSE”, the Inhibition (Serotonin, 5HT5A (h); [3H]-LSD) was 1.24% and the “Responding for food pellets vs vehicle” value (male Wistar rats) was “no statistically significant changes”.
